{
  "source": "patent US9161935B2",
  "about": "(TEVA PHARMACEUTICAL INDUSTRIES, LTD., priority 2012, dated 2015)",
  "key": {"[1]": {"test_system": "Moderate to severe Crohn's disease (CD) subjects", "experiment": "Phase IIa trial CD-LAQ-201: clinical effect (CDAI remission, response)", "type": "in vivo, human", "conditions": "for effects on remission and response 100: week 8", "experimental": "Overall up to ˜180 Crohn's disease patients are enrolled.\nThe capsules were prepared using a blend proportional to the 0.6 mg capsules described in PCT International Application No. PCT/US2007/013721 (WO 2007/146248). The capsules were prepared according to the method described in PCT International Application No. PCT/US2007/013721 (WO 2007/146248), which is hereby incorporated by reference into this application.\nA loading dose regimen of double the maintenance/intended dose was given during the first two days of study drug treatment. Thereafter, starting on day 3, the daily maintenance/intended dose was administered.\nSubjects are required to maintain CDAI diary cards for each day of the screening period and, if randomized, on each day of the treatment and follow-up period. The scores obtained from the seven consecutive diaries completed prior to the baseline visit and to each of weeks 1, 2, 4, 6, 8 and 12 contribute to a total CDAI score at each of the time points.\nModerate to severe Crohn's disease (CD) subjects as determined by a Crohn's Disease Activity Index (CDAI) score of 220-450 (inclusive).\nEach dose was studied sequentially in a distinct cohort.\nScheduled in-clinic visits were conducted at screening, baseline and at weeks 1, 2, 4, 6 and 8. […] Subjects who early-discontinues study drug prior to visit week 8 go to follow-up termination visit within 4 weeks (28 days) of study drug discontinuation.\nThe study exploratory efficacy outcome measures were chosen according to the draft EMEA guidelines for the treatment of active Crohn's disease/induction of remission (EMEA, 2007) • 1. Proportion of subjects in clinical remission (total CDAI score <150) at weeks 4, 6, 8 and 12 (and were not treatment failures). • 2. Proportion of subjects who respond to treatment (decrease from baseline of at least 100 points in CDAI score ore remission) at week 4, 6, 8 and 12. • 3. Time to remission. • 4. Time to response. • 5. C-Reactive Protein (CRP) change from baseline at weeks 2, 4, 6, 8 and 12. • 6. Fecal calprotectin change from baseline to weeks 2, 4, 6, 8 and 12. • 7. Proportion of subjects with a decrease from baseline of at least 50% in the number of open draining fistulas."}, "fecal calprotectin": {"test_system": "fecal calprotectin", "experiment": "Phase IIa trial CD-LAQ-201: changes in fecal calprotectin levels", "type": "in vivo, human", "conditions": "for % of patients with a calprotectin decrease from ≧250 μg/g to below 250 μg/g & greater than 50% reduction: Week 8", "text": "As used herein, “calprotectin” is a calcium and zinc binding anti-microbial protein released by granulocytes. This protein can be detected in stool and its concentration reflects the number of polymorphonuclear leukocytes (PMN), migrating into the gut lumen. It is therefore considered a bio-marker for intestinal inflammation. […] Proportion of subjects in clinical remission (total CDAI score <150) at weeks 4, 6, 8 and 12 (and were not treatment failures). • 2. Proportion of subjects who respond to treatment (decrease from baseline of at least 100 points in CDAI score ore remission) at week 4, 6, 8 and 12. • 3. Time to remission. • 4. Time to response. • 5. C-Reactive Protein (CRP) change from baseline at weeks 2, 4, 6, 8 and 12. • 6. Fecal calprotectin change from baseline to weeks 2, 4, 6, 8 and 12. • 7. Proportion of subjects with a decrease from baseline of at least 50% in the number of open draining fistulas."}, "[2]": {"experiment": "Previous pharmacokinetic studies of laquinimod", "type": "in vivo", "conditions": "loading dose regimen (double dose on first two days)", "text": "In order to decrease thee time to steady state and potentially decrease time to response, a loading dose regimen described below was used to allow steady state levels to be reached in approximately 6-7 days."}, "[3]": {"test_system": "Moderate to Severe Crohn's Disease Patients", "experiment": "Phase III 52-week maintenance of remission study LAQ-CD-303 (Example 4)", "type": "in vivo, human", "experimental": "A phase III, randomized, double-blind, placebo-controlled 52-week maintenance of remission study is conducted in active moderate to severe Crohn's disease patients.\nSubjects with a Response during the 8-week induction studies LAQ-CD-202, LAQ-CD-301, or LAQ-CD-302 are re-randomized into this placebo-controlled maintenance study. Response in those induction studies was defined as a Crohn's Disease Activity Index (CDAI) reduction of at least 70 points from Baseline and CDAI <220 at Week 8 of the induction study in the absence of treatment failure (TF); in particular, this included subjects in Remission. In those 3 induction studies, TF was defined as follows: any new medication/treatment (including surgery) for Crohn's disease (CD) or dose increase not allowed by the protocol, throughout the study period; any early termination from the study was also regarded as TF. No de novo subjects are included in this study.\nRemission: Subjects with CDAI <150 with no Treatment Failure (TF) during the course of the study.\nSteroid Free Remission: Subjects achieving both Remission and steroid free.\nIBDQ Response: An increase from baseline in total IBDQ score of ≧16 points.\nIBDQ Remission: A total IBDQ score of >170 points.\nTreatment duration is 52 weeks. Scheduled in-clinic visits are conducted at Baseline (Week 0), and at Weeks 2, 4, 8, 12, 16, 20, 28, 36, 44, and 52. The Week 0 visit for this maintenance study is the same as the Week 8 visit in the induction study. Unscheduled visits for safety or for any other reason may be conducted at any time during the study.\nPrimary Efficacy Endpoint: • The primary endpoint is evaluated for subjects who belong to the PEC. • The proportion of subjects in Remission at Week 52.\nSecondary Efficacy Endpoints: • The secondary endpoints are evaluated for subjects who belong to the PEC. • The proportion of subjects in Sustained Remission (defined as Remission at Week 36 and Week 52). • The proportion of subjects with Steroid-free Remission at Week 52. • Mean change in total IBDQ score from Baseline to Week 52. • Proportion of subjects with an IBDQ Response at Week 52. • Proportion of subjects with IBDQ Remission at Week 52."}, "[4]": {"conditions": "in vivo; cited from earlier work"}},
  "data": [
    {"smiles": "CCN(C(=O)c1c(O)c2c(Cl)cccc2n(C)c1=O)c1ccccc1", "note": "[laquinimod]", "values": [
      {"measurement": "effects on remission and response 100", "setting": "[1]; 0.5 mg/day", "value": "effects on remission and response 100 were observed"},
      {"measurement": "effects on remission and response 100", "setting": "[1]; 1 mg/day", "value": "lower magnitude effects"},
      {"measurement": "effects on remission and response (conclusion)", "setting": "[1]; 0.5 and 1 mg doses", "value": "clinically relevant effects"},
      {"measurement": "time at which clinical remission was achieved", "setting": "[1]; laquinimod 0.5 mg/day group", "value": "≥ 2", "unit": "week"},
      {"measurement": "time at which response 100 was achieved", "setting": "[1]; laquinimod 0.5 mg/day group", "value": 7, "unit": "days"},
      {"measurement": "time to clinical remission and response 100 versus pooled placebo", "setting": "[1]; laquinimod 0.5 mg/day group", "value": "earlier than patients in the pooled placebo group"},
      {"measurement": "% Change from Baseline in fecal calprotectin level at Week 8, Mean ± SD", "setting": "fecal calprotectin; Laq 0.5 mg", "value": "25.5 ± 132.93", "unit": "%"},
      {"measurement": "% Change from Baseline in fecal calprotectin level at Week 8, Median", "setting": "fecal calprotectin; Laq 0.5 mg", "value": "−23.1", "unit": "%"},
      {"measurement": "% of patients with a calprotectin decrease from ≧250 μg/g to below 250 μg/g & greater than 50% reduction", "setting": "fecal calprotectin; Laq 0.5 mg", "value": 38.9, "unit": "%"},
      {"measurement": "% Change from Baseline in fecal calprotectin level at Week 8, Mean ± SD", "setting": "fecal calprotectin; Laq 1.0 mg", "value": "0.2 ± 91.55", "unit": "%"},
      {"measurement": "% Change from Baseline in fecal calprotectin level at Week 8, Median", "setting": "fecal calprotectin; Laq 1.0 mg", "value": "−14.4", "unit": "%"},
      {"measurement": "% of patients with a calprotectin decrease from ≧250 μg/g to below 250 μg/g & greater than 50% reduction", "setting": "fecal calprotectin; Laq 1.0 mg", "value": 38.9, "unit": "%"},
      {"measurement": "% Change from Baseline in fecal calprotectin level at Week 8, Mean ± SD", "setting": "fecal calprotectin; Laq 1.5 mg", "value": "13.9 ± 108.97", "unit": "%"},
      {"measurement": "% Change from Baseline in fecal calprotectin level at Week 8, Median", "setting": "fecal calprotectin; Laq 1.5 mg", "value": "−18.7", "unit": "%"},
      {"measurement": "% of patients with a calprotectin decrease from ≧250 μg/g to below 250 μg/g & greater than 50% reduction", "setting": "fecal calprotectin; Laq 1.5 mg", "value": 26.7, "unit": "%"},
      {"measurement": "% Change from Baseline in fecal calprotectin level at Week 8, Mean ± SD", "setting": "fecal calprotectin; Laq 2.0 mg", "value": "44.3 ± 198.71", "unit": "%"},
      {"measurement": "% Change from Baseline in fecal calprotectin level at Week 8, Median", "setting": "fecal calprotectin; Laq 2.0 mg", "value": "−20.1", "unit": "%"},
      {"measurement": "% of patients with a calprotectin decrease from ≧250 μg/g to below 250 μg/g & greater than 50% reduction", "setting": "fecal calprotectin; Laq 2.0 mg", "value": 36.4, "unit": "%"},
      {"measurement": "effect on fecal calprotectin", "setting": "fecal calprotectin; all doses (0.5-2 mg/day)", "value": "reduced fecal calprotectin"},
      {"measurement": "objective measures of intestinal inflammation in active CD", "setting": "fecal calprotectin; all doses (LAQ 0.5-2 mg/day)", "value": "reduce objective measures of intestinal inflammation"},
      {"measurement": "percentage of patients with fecal calprotectin ≧250 μg/g at baseline showing at least a 50% reduction and levels <250 μg/g at Week 8", "setting": "fecal calprotectin; laquinimod groups (all doses), pooled placebo 13.6%", "value": "26.7-38.9%"},
      {"measurement": "time to steady state levels", "setting": "[2]", "value": "6 to 7", "unit": "days"},
      {"measurement": "improve and/or maintain IBDQ score by Week 52", "setting": "[3]; 0.25 mg/day", "value": "effective"},
      {"measurement": "induce and/or maintain IBDQ Remission by Week 52", "setting": "[3]; 0.25 mg/day", "value": "effective"},
      {"measurement": "induce and/or maintain IBDQ Response by Week 52", "setting": "[3]; 0.25 mg/day", "value": "effective"},
      {"measurement": "induce and/or maintain Remission by Week 52", "setting": "[3]; 0.25 mg/day", "value": "effective"},
      {"measurement": "induce and/or maintain steroid-free Remission by Week 52", "setting": "[3]; 0.25 mg/day", "value": "effective"},
      {"measurement": "sustain Remission (Remission at Week 36 and Week 52)", "setting": "[3]; 0.25 mg/day", "value": "effective"},
      {"measurement": "improve and/or maintain IBDQ score by Week 52", "setting": "[3]; 0.5 mg/day", "value": "effective"},
      {"measurement": "induce and/or maintain IBDQ Remission by Week 52", "setting": "[3]; 0.5 mg/day", "value": "effective"},
      {"measurement": "induce and/or maintain IBDQ Response by Week 52", "setting": "[3]; 0.5 mg/day", "value": "effective"},
      {"measurement": "induce and/or maintain Remission by Week 52", "setting": "[3]; 0.5 mg/day", "value": "effective"},
      {"measurement": "induce and/or maintain steroid-free Remission by Week 52", "setting": "[3]; 0.5 mg/day", "value": "effective"},
      {"measurement": "sustain Remission (Remission at Week 36 and Week 52)", "setting": "[3]; 0.5 mg/day", "value": "effective"},
      {"measurement": "oral bioavailability", "setting": "[4]", "value": "high"}
    ]}
  ]
}
